Measurements taken from the supplement of paper PMC10307832.

Experiments:
Experiment in all cases: relative viability (nuclei count vs DMSO), 5 days (fraction); higher = more cells survive
[1] = compound: COc1cc(Nc2ncc(F)c(Nc3ccc4c(n3)NC(=O)C(C)(C)O4)n2)cc(OC)c1OC [R406] + COc1cc2c(Oc3ccc(NC(=O)C4(C(=O)Nc5ccc(F)cc5)CC4)cc3F)ccnc2cc1OCCCN1CCOCC1 [Foretinib] (partner 0.25 µM)
Method in brief: (§1)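 Dosing by pin tool came one day after lung cancer cell lines were seeded in 1536-well plates, using either one drug or a fixed anchor-drug dose plus five library-drug doses (not always all listed) in √10 steps. After 5 days, nuclei were counted on 4× images. Relative viability is treated-well nuclei count divided by vehicle-well nuclei count, and values are medians of duplicate plates.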

[2] = compound: O=C(/C=C/c1cccnc1)NCCCCC1CCN(C(=O)c2ccccc2)CC1 [Daporinad] + CC1(C)CCC(c2ccc(Cl)cc2)=C(CN2CCN(c3ccc(C(=O)NS(=O)(=O)c4ccc(N[C@H](CCN5CCOCC5)CSc5ccccc5)c(S(=O)(=O)C(F)(F)F)c4)cc3)CC2)C1 [Navitoclax] (partner 0.5 µM)
Method in brief: as §1

[3] = compound: COc1cc(Nc2ncc(F)c(Nc3ccc4c(n3)NC(=O)C(C)(C)O4)n2)cc(OC)c1OC [R406] + Nc1ncn([C@H]2C[C@H](O)[C@@H](CO)O2)c(=O)n1 [Decitabine] (partner 2 µM)
Method in brief: as §1

[4] = compound: O=C(/C=C/c1cccnc1)NCCCCC1CCN(C(=O)c2ccccc2)CC1 [Daporinad] + Nc1ncn([C@H]2C[C@H](O)[C@@H](CO)O2)c(=O)n1 [Decitabine] (partner 2 µM)
Method in brief: as §1

Cell Line	relative viability ([1]; first compound 0.08 µM)	relative viability ([1]; first compound 0.253 µM)	relative viability ([1]; first compound 0.8 µM)	relative viability ([1]; first compound 2.53 µM)	relative viability ([1]; first compound 8 µM)	relative viability ([2]; first compound 0.0005 µM)	relative viability ([2]; first compound 0.001581 µM)	relative viability ([2]; first compound 0.005 µM)	relative viability ([2]; first compound 0.01581 µM)	relative viability ([3]; first compound 0.08 µM)	relative viability ([3]; first compound 0.253 µM)	relative viability ([3]; first compound 0.8 µM)	relative viability ([3]; first compound 2.53 µM)	relative viability ([3]; first compound 8 µM)	relative viability ([4]; first compound 0.0005 µM)	relative viability ([4]; first compound 0.001581 µM)	relative viability ([4]; first compound 0.005 µM)	relative viability ([4]; first compound 0.01581 µM)
NCI-H1395	1.03	1.22	1.03	0.736	0.632	1.03	1.14	1.13	1.26	0.685	0.782	0.72	0.572	0.628	0.713	0.816	0.765	0.784
NCI-H727	0.954	0.841	0.851	0.752	0.697	0.409	0.568	0.483	0.29	0.919	1.16	0.854	0.872	0.847	0.822	0.903	1	0.67
NCI-H1915	0.983	1.16	1.11		0.989	0.805	0.739	0.765	0.809	0.258	0.298	0.265	0.293	0.278	0.25	0.283	0.271	0.257
NCI-H441	0.863	1.13	1.18	0.718	0.406		0.609	0.815	0.559	0.231	0.248	0.276	0.217	0.24	0.249	0.204	0.281	0.237
LXF-289	1.01	1.03	0.969	0.999	0.238	0.868	0.951	0.971	1.02	0.386	0.372	0.406	0.405	0.396	0.4	0.426	0.397	0.332
NCI-H520	0.831	1	0.883	0.293	0.421	0.945	0.442	0.258	0.197	0.455	0.684	0.53	0.302	0.158	0.558	0.513	0.283	0.18
A549	0.961	1	0.94	0.959	0.396	1.3	1.21	1.12	0.814	0.22	0.261	0.257	0.258	0.311	0.227	0.252	0.234	0.161
NCI-H2009	1.19	1.35	1.17	1.27	0.368	1.17	1.2	1.22	0.812	0.371	0.42	0.383	0.353	0.294	0.356	0.395	0.381	0.372
201T	1.13	1.32	1.21	0.829	0.708	1.23	1.19	1.21	1.2	0.838	0.847	0.861	0.839	0.586	0.849	0.917	0.832	0.881
NCI-H23	0.989	1.05	0.977		0.206	0.83	0.637	0.658	0.447	0.258	0.307	0.314	0.308	0.177	0.319	0.306	0.272	0.23
LOU-NH91	0.918	0.975	0.918	0.518	0.475	0.678	0.851	0.928	1.24	0.797	0.792	0.779	0.644	0.558	0.824	0.837	0.877	0.947
NCI-H2085	0.847	1.08	0.973	0.912	0.289	1.17	1.25	1.23	1.03	0.592	0.58	0.492	0.544	0.451	0.486		0.59	0.573
COR-L23	0.925	1.18	1.12	0.931	0.665	1.01	0.966	0.916	0.186	0.397	0.447	0.512	0.339	0.326	0.43	0.471	0.437	0.227
BEN	0.884	0.609	0.691	0.879	0.578	0.074	0.147	0.0521	0.083	0.679	0.793	0.726	0.683	0.441	0.799	0.783	0.803	0.835
ChaGo-K-1	0.926	1.07	1.09	0.771	0.531	1.02	0.58	0.845	0.492	0.491	0.546	0.557	0.504	0.506	0.534	0.532	0.355	0.246
LK-2	1.14	1.45	1.1	0.888	0.344	0.865	1.04	0.583	0.393	0.227	0.469	0.379	0.23	0.21	0.338	0.323	0.228	0.13
NCI-H322M	0.962	0.917	1.03	0.547	0.559	1.25	1.43	1.25	0.995	0.665	0.669	0.704	0.594	0.557	0.659	0.749	0.683	0.664
NCI-H596	0.926	1	0.957	0.726	0.162	1.01	1.05	1.3	0.291	0.88	0.994	1.01	0.91	0.372	0.982	1	0.912	0.636
NCI-H1666	0.926	1.07	0.977	0.869	0.59	0.957	1.05	0.861	0.796	0.672	0.792	0.637	0.936	0.74	0.666	0.712	0.814	0.718
NCI-H1993	0.72	0.756	0.846	0.642	0.577	0.877	0.753	0.982	1.16	0.623	0.634	0.599	0.537	0.542	0.576	0.629	0.602	0.639
NCI-H1975	0.9	1.05	0.986	0.492	0.227	1.28	1.18	1.06	1.06	0.368	0.401	0.386	0.31	0.19	0.444	0.338	0.382	0.373
